Experimental data: PubChem BioAssay AID1845199 (Molecular Pharmacology Branch, DTP, NCI, 2023)

Test system: 556581-035-R-J1 tumor spheroid viability, % test/control
Assay: Anticancer human tumor 556581-035-R-J1 patient-derived ovarian carcinoma cell line growth inhibition
Conditions: spheroids with HUVEC and MSC; for IC50: curve of first compound; for viability, T/C: stronger effect = lower value
Text: Multicellular complex tumor spheroid response to DNA repair inhibitors in combination with DNA-damaging drugs
This study explores the anticancer activities of DNA-damaging drugs and inhibitors of DNA damage repair, both as single agents and in combinations. Complex tumor spheroids comprised of malignant cells, endothelial cells and mesenchymal stem cells served as an in vitro model for human solid tumors. This model system incorporates physiologically relevant features and patient-derived or established malignant cell lines with clinically relevant genetic alterations from many tumor types. Twenty-six patient-derived or established malignant cell lines were evaluated representing sarcoma, melanoma, small cell lung cancer (SCLC), non-small cell lung cancer (NSCLC), as well as bladder, ovarian and pancreatic cancers. The concentration ranges selected for each drug and investigational agent were based upon clinically achievable concentrations if the clinical Cmax of the agent was known.
Compounds. The drugs and compounds olaparib (NSC753686), talazoparib (NSC767125), berzosertib (NSC777718), elimusertib (NSC800525), nedisertib (NSC802822), VX-984 (NSC792969), AZD-1390 (NSC803789), temozolomide (NSC362856), topotecan (NSC609699), trabectedin (NSC813783), staurosporine (NSC755774), and gemcitabine (NSC613327) were obtained from the National Cancer Institute (NCI) Developmental Therapeutics Program Chemical Repository. The FDA-approved anticancer drug set is available from the Developmental Therapeutics Program at https://dtp.cancer.gov/organization/dscb/obtaining/available_plates.htm. […] The stock solutions were prepared in dimethyl sulfoxide (DMSO, Sigma-Aldrich, St. Louis, MO, cat. D2650) at 400-fold the tested concentration and stored at -70 degrees C. Prior to their use, the stock solutions were diluted in fresh medium and the final DMSO concentration in the assay was 0.25% (v/v). All drugs and investigational agents were tested over a range starting from a high concentration at or near the clinical Cmax and decreasing in half-log increments. If the clinical Cmax for an agent had not been determined, the highest concentration tested was 10 microM.
Cell Lines. The patient-derived cancer cell (PDC) lines: 156681-154-R-J1-PDC, 283228-195-R-J1-PDC, 287954-098-R-J1-PDC, 292921-168-R-J2-PDC, 349418-098-R-PDC, 425362-245-T-J1-PDC, 556581-035-R-J1-PDC, and BL0293-F563-PDC were received from the NCI Patient-Derived Models Repository (PDMR, https://pdmr.cancer.gov). The established cell lines HS-SY-2 (RRID:CVCL_8719), MPNST, and SYO-1 (RRID:CVCL_7146) were obtained from the Sloan Kettering Institute. The alveolar soft parts sarcoma cell line ASPS-1 (RRID:CVCL_S738) was established at the NCI and grown from internal seed stocks. The following established cell lines were purchased from the American Type Culture Collection (ATCC, Manassas, VA): G-401 (ATCC, cat. CRL-1441, RRID:CVCL_0270), SW982 (ATCC, cat. HTB-93, RRID:CVCL_1734), VA-ES-BJ (ATCC, cat. CRL-2138, RRID:CVCL_1785), NCI-H719 (ATCC, cat. CRL-5837, RRID:CVCL_1582), NCI-H196 (ATCC, cat. CRL-5823, RRID:CVCL_1509), NCI-H841 (ATCC, cat. CRL-5845, RRID:CVCL_1595), NCI-H1618 (ATCC, cat. CRL-5879, RRID:CVCL_1480), NCI-H1876 (ATCC, cat. CRL-5902, RRID:CVCL_1503), DMS 114 (ATCC, cat. CRL-2066; RRID:CVCL_1174), NCI-H211 (ATCC, cat. CRL-5824; RRID:CVCL_1529), and SW 1271 (ATCC, cat. CRL-2177, RRID:CVCL_1716). The small cell lung cancer cell line COR-L88 was purchased from Sigma-Aldrich (cat. 92031917-1VL, RRID:CVCL_1141). The non-small cell lung cancer cell lines NCI-H226 (RRID:CVCL_1544) and NCI-H322M (RRID:CVCL_1557) were established at the NCI and grown from internal seed stocks. Pooled donor human umbilical vein endothelial cells (HUVEC, Lonza, cat. CC-2519) and human mesenchymal stem cells (hMSC, Lonza, cat. PT-2501) were purchased from Lonza (Walkersville, MD).
Cell Culture. All cells were maintained in an incubator at 37 degrees C and 5% CO2 with 95% humidity. […]
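Also: spheroids exposed to compounds for 7 days before viability read.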

With Cc1cc(C)c(CNC(=O)c2cc(-c3ccc(CN4CCOCC4)cc3)cc3c2cnn3C2CCCC2)c(=O)[nH]1 + CC[C@@]1(O)C(=O)OCc2c1cc1n(c2=O)Cc2cc3c(CN(C)C)c(O)ccc3nc2-1 the IC50 (second compound 0.003 µM) was > 10 µM, the IC50 (second compound 0.00949 µM) was > 10 µM and the IC50 (second compound 0.03 µM) was > 10 µM. For the same compound, the IC50 (second compound 0.0949 µM) was 4.51 µM, the IC50 (second compound 0.3 µM) was < 0.0316 µM and the viability, T/C (second compound 0.003 µM, first compound 0.0316 µM) was 97%. It also gave a viability, T/C (second compound 0.003 µM, first compound 0.1 µM) of 85.4%, a viability, T/C (second compound 0.003 µM, first compound 0.316 µM) of 89% and a viability, T/C (second compound 0.003 µM, first compound 1 µM) of 84%. It also gave a viability, T/C (second compound 0.003 µM, first compound 3.16 µM) of 99.7%, a viability, T/C (second compound 0.003 µM, first compound 10 µM) of 87.4% and a viability, T/C (second compound 0.00949 µM, first compound 0.0316 µM) of 95.9%. It also gave a viability, T/C (second compound 0.00949 µM, first compound 0.1 µM) of 87.7%, a viability, T/C (second compound 0.00949 µM, first compound 0.316 µM) of 78.8% and a viability, T/C (second compound 0.00949 µM, first compound 1 µM) of 72.5%. The viability, T/C (second compound 0.00949 µM, first compound 3.16 µM) was 87.4%, the viability, T/C (second compound 0.00949 µM, first compound 10 µM) was 83.8% and the viability, T/C (second compound 0.03 µM, first compound 0.0316 µM) was 74.2%. For the same compound, the viability, T/C (second compound 0.03 µM, first compound 0.1 µM) was 72.9%, the viability, T/C (second compound 0.03 µM, first compound 0.316 µM) was 70.3% and the viability, T/C (second compound 0.03 µM, first compound 1 µM) was 67.1%. It also gave a viability, T/C (second compound 0.03 µM, first compound 3.16 µM) of 66.8%, a viability, T/C (second compound 0.03 µM, first compound 10 µM) of 70.4% and a viability, T/C (second compound 0.0949 µM, first compound 0.0316 µM) of 60.1%. It also gave a viability, T/C (second compound 0.0949 µM, first compound 0.1 µM) of 56.6%, a viability, T/C (second compound 0.0949 µM, first compound 0.316 µM) of 57.1% and a viability, T/C (second compound 0.0949 µM, first compound 1 µM) of 56.3%. The viability, T/C (second compound 0.0949 µM, first compound 3.16 µM) was 53.5%, the viability, T/C (second compound 0.0949 µM, first compound 10 µM) was 43.1% and the viability, T/C (second compound 0.3 µM, first compound 0.0316 µM) was 19.3%. It also gave a viability, T/C (second compound 0.3 µM, first compound 0.1 µM) of 22.9%, a viability, T/C (second compound 0.3 µM, first compound 0.316 µM) of 19.6% and a viability, T/C (second compound 0.3 µM, first compound 1 µM) of 19.2%. For the same compound, the viability, T/C (second compound 0.3 µM, first compound 3.16 µM) was 15.6% and the viability, T/C (second compound 0.3 µM, first compound 10 µM) was 11.3%.
Cc1sc2c(c1C)C(c1ccc(Cl)cc1)=NC(CC(=O)Nc1ccc(O)cc1)c1nnc(C)n1-2 (stereo not given) + CC[C@@]1(O)C(=O)OCc2c1cc1n(c2=O)Cc2cc3c(CN(C)C)c(O)ccc3nc2-1 was tested, and the IC50 (second compound 0.003 µM) was > 3 µM, the IC50 (second compound 0.00949 µM) was > 3 µM and the IC50 (second compound 0.03 µM) was > 3 µM. The IC50 (second compound 0.0949 µM) was 0.281 µM, the IC50 (second compound 0.3 µM) was < 0.00949 µM and the viability, T/C (second compound 0.003 µM, first compound 0.00949 µM) was 103%. It also gave a viability, T/C (second compound 0.003 µM, first compound 0.03 µM) of 85.4%, a viability, T/C (second compound 0.003 µM, first compound 0.0949 µM) of 83.8% and a viability, T/C (second compound 0.003 µM, first compound 0.3 µM) of 74.8%. It also gave a viability, T/C (second compound 0.003 µM, first compound 0.949 µM) of 77.5%, a viability, T/C (second compound 0.003 µM, first compound 3 µM) of 74.2% and a viability, T/C (second compound 0.00949 µM, first compound 0.00949 µM) of 99.4%. The viability, T/C (second compound 0.00949 µM, first compound 0.03 µM) was 84.3%, the viability, T/C (second compound 0.00949 µM, first compound 0.0949 µM) was 74% and the viability, T/C (second compound 0.00949 µM, first compound 0.3 µM) was 68.8%. For the same compound, the viability, T/C (second compound 0.00949 µM, first compound 0.949 µM) was 71.4%, the viability, T/C (second compound 0.00949 µM, first compound 3 µM) was 64.2% and the viability, T/C (second compound 0.03 µM, first compound 0.00949 µM) was 74.3%. It also gave a viability, T/C (second compound 0.03 µM, first compound 0.03 µM) of 76.5%, a viability, T/C (second compound 0.03 µM, first compound 0.0949 µM) of 68.8% and a viability, T/C (second compound 0.03 µM, first compound 0.3 µM) of 66.7%. For the same compound, the viability, T/C (second compound 0.03 µM, first compound 0.949 µM) was 65.6%, the viability, T/C (second compound 0.03 µM, first compound 3 µM) was 54.7% and the viability, T/C (second compound 0.0949 µM, first compound 0.00949 µM) was 59.3%. The viability, T/C (second compound 0.0949 µM, first compound 0.03 µM) was 58.4%, the viability, T/C (second compound 0.0949 µM, first compound 0.0949 µM) was 56.2% and the viability, T/C (second compound 0.0949 µM, first compound 0.3 µM) was 50.7%. It also gave a viability, T/C (second compound 0.0949 µM, first compound 0.949 µM) of 39.6%, a viability, T/C (second compound 0.0949 µM, first compound 3 µM) of 41.4% and a viability, T/C (second compound 0.3 µM, first compound 0.00949 µM) of 16.4%. The viability, T/C (second compound 0.3 µM, first compound 0.03 µM) was 16.9%, the viability, T/C (second compound 0.3 µM, first compound 0.0949 µM) was 12.9% and the viability, T/C (second compound 0.3 µM, first compound 0.3 µM) was 17.1%. The viability, T/C (second compound 0.3 µM, first compound 0.949 µM) was 18.6% and the viability, T/C (second compound 0.3 µM, first compound 3 µM) was 11.3%.
